The record followed here is patent publication US9145354B2, “Pharmaceutical compounds” (priority 2011, dated 2015).

Usually inhibition stands for the percentage by which the read-out fell short of the control. Low values mean a weak effect, high ones a strong effect.

This experiment deals with full length NS3/4a (Hepatitis C virus genotype 1b (isolate BK) (HCV), UniProt P26663). Nature of the experiment: NS3 Protease Assay (Example A), FRET-based. It counts as biochemical. On the procedure:
The HCV NS3 protease functions have been extensively studied and are considered as potential targets for antiviral therapy: see for example the many references listed in the introductory section of this application. Therefore, the activity of the compounds of the invention as anti-HCV agents was assessed using a full length HCV NS3 protease.
The protease activity of the full length NS3/4a was measured using a FRET-based assay utilizing a peptide substrate derived from the NS4A/B cleavage site (Anaspec) and labelled at one end with a quencher (QXL520) and at the other with a fluorophore (5-FAMsp). NS3/4a (produced in-house by literature methods) was incubated with test compounds and peptide substrate in 50 mM Tris pH8, 20 mM DTT, 1% CHAPS, 10% glycerol and 5% DMSO. The reaction was followed by monitoring the change in fluorescence on a Molecular Devices Gemini plate reader for 30 minutes at room temperature. Initial rates were calculated from the progress curves using SoftMax Pro (Molecular Devices). IC50 values were then calculated from replicate curves using Prism GraphPad software.

Where [1] appears, read: HCV NS3 protease assay, full length NS3/4a, read-out: Assay A IC50 (μM) average.
Setting [2] is: read-out: IC50 against the protease activity of the full length NS3/4a.

Where two headings read alike, the source gives them in different places.

full length NS3/4a, sequence (P26663 1027-1657): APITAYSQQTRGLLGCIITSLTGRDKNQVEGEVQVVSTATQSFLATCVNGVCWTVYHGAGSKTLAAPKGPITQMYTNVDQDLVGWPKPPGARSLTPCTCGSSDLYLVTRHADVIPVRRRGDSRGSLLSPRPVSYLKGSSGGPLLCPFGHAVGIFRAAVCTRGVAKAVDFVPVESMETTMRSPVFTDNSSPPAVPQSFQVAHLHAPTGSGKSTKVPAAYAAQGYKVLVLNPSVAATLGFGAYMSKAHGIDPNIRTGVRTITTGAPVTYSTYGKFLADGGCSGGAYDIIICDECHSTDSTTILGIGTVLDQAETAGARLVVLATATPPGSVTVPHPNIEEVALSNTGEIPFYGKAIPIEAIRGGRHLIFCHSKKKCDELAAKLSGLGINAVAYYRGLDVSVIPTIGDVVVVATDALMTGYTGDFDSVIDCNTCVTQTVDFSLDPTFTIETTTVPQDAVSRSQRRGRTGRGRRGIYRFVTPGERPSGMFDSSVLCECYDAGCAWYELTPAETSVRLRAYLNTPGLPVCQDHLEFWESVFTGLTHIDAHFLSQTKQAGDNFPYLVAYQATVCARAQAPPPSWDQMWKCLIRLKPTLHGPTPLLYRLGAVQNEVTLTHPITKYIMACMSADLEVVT

In the case of `CC[C@@H](N[C@H](C)CC(N)=O)c1ccc(Cl)c(C(=O)c2ccc(N)nc2)c1F` [Example 82, (3R)-3-{[(1R)-1-{3-[(6-aminopyridin-3-yl)carbonyl]-4-chloro-2-fluorophenyl}propyl]-amino}butanamide], the IC50 under setting [1] was found to be 0.83 µM.
On the same count and under the same terms, to `CC[C@@H](N[C@H](C)CC(N)=O)c1ccc(Cl)c(C(=O)c2ccccc2)c1F` [Example 83, (3R)-3-{[(1R)-1-(3-benzoyl-4-chloro-2-fluorophenyl)propyl]-amino}butanamide] belongs 0.5 µM.
In the case of `CC[C@H](N[C@H](C)CC(N)=O)c1ccc(Cl)c(C(=O)c2ccccc2)c1F` [Example 85, (3R)-3-{[(1S)-1-(3-benzoyl-4-chloro-2-fluorophenyl)-propyl]-amino}butanamide], under setting [1], the IC50 turned out to be 0.061 µM.
With `CC[C@H](N[C@@H](C)CC(N)=O)c1ccc(Cl)c(C(=O)c2ccccc2)c1F` [Example 86, (3S)-3-{[(1S)-1-(3-benzoyl-4-chloro-2-fluorophenyl)-propyl]amino}butanamide], the IC50 runs as follows: under setting [1], 1 µM; under setting [2], 1 to 5 µM.
In turn, `CC[C@@H](N[C@H](C)CC(=O)NCCN)c1ccc(Cl)c(C(=O)c2ccccc2)c1F` [Example 87, (3R)—N-(2-Aminoethvl)-3-{[(1R)-1-(3-benzoyl-4-chloro-2-fluorophenyl)propyl]-amino}butanamide] registered an inhibition at 0.01 µM (@ 0.01 uM) of 54%.
The compound `CC[C@H](N[C@@H](C)CC(=O)NCCN)c1ccc(Cl)c(C(=O)c2ccccc2)c1F` [Example 89, (3S)-N-(2-aminoethyl)-3-{[(1S)-1-(3-benzoyl-4-chloro-2-fluorophenyl)propyl]-amino}butanamide] yielded an inhibition at 0.03 µM (@ 0.03 uM) of 54%.
For the compound `CC[C@@H](N[C@H](C)CC(N)=O)c1ccc(Cl)c(C(=O)c2ccc(C#N)cc2)c1F` [Example 92, (3R)-3-{[(1R)-1-{4-chloro-3-[(4-cyanophenyl)carbonyl]-2-fluorophenyl}propyl]amino}-butanamide], under setting [1], the IC50 came to 0.34 µM.
As for `CC[C@@H](N[C@H](C)CC(N)=O)c1ccc(Cl)c(C(=O)c2cccnc2)c1F` [Example 94, (3R)-3-{[(1R)-1-{4-chloro-2-fluoro-3-[(pyridin-3-yl)carbonyl]phenyl}propyl]amino}butanamide], the IC50 under setting [1] was found to be 1 µM and the IC50 under setting [2] is 1 to 5 µM.
Compound `CC[C@@H](N[C@H](C)CC(N)=O)c1ccc(Cl)c(C(=O)c2cccc(F)c2)c1F` [Example 96, (3R)-3-{[(1R)-1-{4-chloro-2-fluoro-3-[(3-fluorophenyl)-carbonyl]phenyl}propyl]amino}butanamide] had an inhibition at 0.3 µM (@ 0.3 uM) of 58%.
As to `CC[C@@H](N[C@H](C)CC(N)=O)c1ccc(Cl)c(C(=O)c2ccc(F)cc2)c1F` [Example 98, (3R)-3-{[(1R)-1-{4-chloro-2-fluoro-3-[(4-fluorophenyl)-carbonyl]phenyl}propyl]amino}butanamide], the IC50 under setting [1] turned out to be 0.6 µM.
Regarding `CC[C@@H](N[C@@H](C)CC(N)=O)c1ccc(Cl)c(C(=O)c2ccncn2)c1F` [Example 99, (3S)-3-{[(1R)-1-{4-chloro-2-fluoro-3-[(pyrimidin-4-yl)carbonyl]phenyl}propyl]-amino}butanamide], under setting [1], the IC50 worked out at 0.25 µM.
`CC[C@@H](N[C@H](C)CC(N)=O)c1ccc(Cl)c(C(=O)c2ccncn2)c1F` [Example 100, (3R)-3-{[(1R)-1-{4-chloro-2-fluoro-3-[(pyrimidin-4-yl)carbonyl]phenyl}propyl]amino}butanamide]: the IC50 reads like this: under setting [1], 14 µM; (stated as IC50 less than 30 μM or at least 40% inhibition at a concentration of 100 μM, read-out: IC50 against the protease activity of the full length NS3/4a) under 30 µM.
Consider `CC[C@@H](N[C@H](C)CC(N)=O)c1ccc(Cl)c(C(=O)c2cccc(C#N)c2)c1F` [Example 102, (3R)-3-{[(1R)-1-{4-chloro-3-[(3-cyanophenyl)carbonyl]-2-fluorophenyl}propyl]amino}-butanamide], for which the IC50 under setting [1] came out at 1.2 µM and the IC50 under setting [2] lay in the range of 1 to 5 µM.
